Data reported in US20130296390A1, “METHOD AND COMPOSITIONS FOR ENHANCING THE SAFETY OF ORALLY ADMINISTERED MAGNESIUM ALPHA-LIPOATE” (BIOLINK LIFE SCIENCES, INC., priority 2012, published 2013).
Entries after “also recorded” stand apart in the source; their conditions may differ.

Legend:
[1] = molecular target: T1, sodium-dependent vitamin transporters (SMVT) (Homo sapiens, UniProt Q9Y289); conditions: keratinocytes, cited from earlier work; for Ki: read-out: Ki, inhibition of biotin uptake
T1 construct: in keratinocytes, the SMVT transport system; endogenous in cells; host or cells: human keratinocytes
T1 sequence (Q9Y289 1-635): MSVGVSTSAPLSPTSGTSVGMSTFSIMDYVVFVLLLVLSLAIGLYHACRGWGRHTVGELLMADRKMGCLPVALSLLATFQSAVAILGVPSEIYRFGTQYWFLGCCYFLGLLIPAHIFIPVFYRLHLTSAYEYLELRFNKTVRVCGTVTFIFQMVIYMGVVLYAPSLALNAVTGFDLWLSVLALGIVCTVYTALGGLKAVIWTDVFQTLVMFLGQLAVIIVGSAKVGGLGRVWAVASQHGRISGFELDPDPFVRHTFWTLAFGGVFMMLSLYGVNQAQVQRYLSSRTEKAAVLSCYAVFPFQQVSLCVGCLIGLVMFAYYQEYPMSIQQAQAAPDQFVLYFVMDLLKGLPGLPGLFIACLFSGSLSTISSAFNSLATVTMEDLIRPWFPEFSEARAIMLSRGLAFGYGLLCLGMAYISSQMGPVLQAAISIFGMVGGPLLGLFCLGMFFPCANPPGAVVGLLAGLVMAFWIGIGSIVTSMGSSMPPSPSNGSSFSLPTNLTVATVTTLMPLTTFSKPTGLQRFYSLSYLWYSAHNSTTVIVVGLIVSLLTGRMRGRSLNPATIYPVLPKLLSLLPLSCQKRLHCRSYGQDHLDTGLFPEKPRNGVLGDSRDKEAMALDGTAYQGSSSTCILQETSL

[2] = in vivo; cited from earlier work
[3] = oral; cited from earlier work
[4] = molecular target: T2, β-methylcrotonyl-CoA carboxylase (EC 6.4.1.4) (Rattus norvegicus, UniProt Q5I0C3+Q5XIT9); conditions: intraperitoneal ALA 8.8 mg/kg·day or 31.8 mg/kg·d, rats, compared with vehicle controls (P<0.05); cited from earlier work
T2 construct: Lipoic acid reduces the activities of biotin-dependent carboxylases in rat liver; from tissue; host or cells: rat liver
T2 sequence (Q5I0C3 39-715): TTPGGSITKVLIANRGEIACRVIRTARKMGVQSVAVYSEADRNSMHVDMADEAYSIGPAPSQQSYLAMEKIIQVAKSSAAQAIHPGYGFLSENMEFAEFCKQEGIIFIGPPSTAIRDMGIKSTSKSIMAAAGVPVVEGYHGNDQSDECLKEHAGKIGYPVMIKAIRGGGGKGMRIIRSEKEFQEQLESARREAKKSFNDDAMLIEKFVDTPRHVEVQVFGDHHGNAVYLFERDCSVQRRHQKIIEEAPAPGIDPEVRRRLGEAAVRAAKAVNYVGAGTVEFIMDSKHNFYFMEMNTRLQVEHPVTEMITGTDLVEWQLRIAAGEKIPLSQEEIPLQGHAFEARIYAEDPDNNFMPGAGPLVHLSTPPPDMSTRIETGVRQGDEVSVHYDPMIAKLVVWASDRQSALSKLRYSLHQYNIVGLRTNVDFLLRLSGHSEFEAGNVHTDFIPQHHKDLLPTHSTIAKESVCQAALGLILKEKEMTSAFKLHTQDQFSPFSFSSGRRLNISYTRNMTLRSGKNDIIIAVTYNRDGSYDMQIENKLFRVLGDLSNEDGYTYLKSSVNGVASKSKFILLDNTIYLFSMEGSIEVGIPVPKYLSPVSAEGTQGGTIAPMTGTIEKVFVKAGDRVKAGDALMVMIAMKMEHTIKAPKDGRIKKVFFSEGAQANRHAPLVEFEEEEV
T2 sequence (Q5XIT9 23-563): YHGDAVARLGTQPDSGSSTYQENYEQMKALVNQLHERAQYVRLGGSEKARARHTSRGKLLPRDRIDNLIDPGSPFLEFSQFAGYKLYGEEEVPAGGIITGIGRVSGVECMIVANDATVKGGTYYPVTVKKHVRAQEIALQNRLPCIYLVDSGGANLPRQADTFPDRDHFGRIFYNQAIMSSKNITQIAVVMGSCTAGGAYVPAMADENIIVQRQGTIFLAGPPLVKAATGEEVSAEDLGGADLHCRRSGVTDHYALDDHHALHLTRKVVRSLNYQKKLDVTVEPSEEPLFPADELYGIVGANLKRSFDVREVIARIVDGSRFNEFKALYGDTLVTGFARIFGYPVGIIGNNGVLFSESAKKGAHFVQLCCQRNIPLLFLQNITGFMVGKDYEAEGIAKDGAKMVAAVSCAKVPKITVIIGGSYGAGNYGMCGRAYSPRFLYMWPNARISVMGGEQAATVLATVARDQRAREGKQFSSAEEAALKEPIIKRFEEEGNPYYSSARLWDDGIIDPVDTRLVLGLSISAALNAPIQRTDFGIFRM

[5] = intravenous, acute 100 mg/kg dose, rat; cited from earlier work
[6] = molecular target: T3, pyruvate carboxylase (EC 6.4.1.1) (Rattus norvegicus, UniProt P52873); conditions: intraperitoneal ALA 8.8 mg/kg·day or 31.8 mg/kg·d, rats, compared with vehicle controls (P<0.05); cited from earlier work
T3 construct: Lipoic acid reduces the activities of biotin-dependent carboxylases in rat liver; from tissue; host or cells: rat liver
T3 sequence (P52873 21-1178): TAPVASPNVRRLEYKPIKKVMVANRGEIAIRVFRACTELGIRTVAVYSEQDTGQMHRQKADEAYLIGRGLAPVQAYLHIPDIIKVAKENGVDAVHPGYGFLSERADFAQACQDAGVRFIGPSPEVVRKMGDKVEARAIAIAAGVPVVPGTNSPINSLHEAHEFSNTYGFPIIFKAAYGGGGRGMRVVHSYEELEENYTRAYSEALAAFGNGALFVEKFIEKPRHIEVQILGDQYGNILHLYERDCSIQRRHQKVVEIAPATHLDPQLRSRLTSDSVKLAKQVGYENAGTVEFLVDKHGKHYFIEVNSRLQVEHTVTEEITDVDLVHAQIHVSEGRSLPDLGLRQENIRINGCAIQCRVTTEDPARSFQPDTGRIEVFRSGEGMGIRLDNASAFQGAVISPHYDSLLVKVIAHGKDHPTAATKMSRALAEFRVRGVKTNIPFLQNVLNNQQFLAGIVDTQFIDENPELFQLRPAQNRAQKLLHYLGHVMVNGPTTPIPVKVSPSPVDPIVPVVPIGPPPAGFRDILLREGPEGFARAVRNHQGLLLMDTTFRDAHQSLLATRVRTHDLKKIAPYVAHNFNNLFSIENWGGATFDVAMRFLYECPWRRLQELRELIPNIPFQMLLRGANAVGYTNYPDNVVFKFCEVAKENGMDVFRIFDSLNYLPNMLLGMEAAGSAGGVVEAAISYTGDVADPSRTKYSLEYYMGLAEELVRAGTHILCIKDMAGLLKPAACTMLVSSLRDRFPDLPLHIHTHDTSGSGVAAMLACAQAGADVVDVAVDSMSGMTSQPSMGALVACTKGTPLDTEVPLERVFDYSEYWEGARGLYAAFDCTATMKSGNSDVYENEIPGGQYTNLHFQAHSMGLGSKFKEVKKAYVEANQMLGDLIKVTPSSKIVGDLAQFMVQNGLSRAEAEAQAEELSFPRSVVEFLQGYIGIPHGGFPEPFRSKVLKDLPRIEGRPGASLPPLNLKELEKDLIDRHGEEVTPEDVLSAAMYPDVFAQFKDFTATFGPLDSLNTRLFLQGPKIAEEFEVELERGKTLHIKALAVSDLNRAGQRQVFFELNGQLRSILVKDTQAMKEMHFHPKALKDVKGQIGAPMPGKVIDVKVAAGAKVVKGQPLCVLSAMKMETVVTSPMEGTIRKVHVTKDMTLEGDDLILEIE

[7] = oral, chronic daily doses about 30 mg/kg to over 2,000 mg/kg body weight; cited from earlier work
[8] = tested on: acetyl-CoA carboxylase (EC 6.4.1.2); conditions: intraperitoneal ALA 8.8 mg/kg·day or 31.8 mg/kg·d, rats; wide intragroup variability; cited from earlier work
[9] = Short and long-term toxicity studies of ALA (NOAEL); format: in vivo
Protocol: Alpha-Lipoic acid is the sole remaining component in the formulation tested in Example 1. The safety and absence of toxicity of ALA has been established in both short and long-term toxicity studies, including in vitro mutagenicity/genotoxicity studies. The no-observed adverse effect level (NOAEL) of ALA is considered to be 60 mg per kg body weight per day. […] Nonetheless, the inventor examined to a number of potential mechanisms of toxicity related to alpha-lipoate.

[10] = tested on: second biotin transport component; conditions: keratinocytes, cited from earlier work
[11] = cited from earlier work
[12] = Physicochemical description
[13] = tested on: mouse model of chronic kidney disease (CKD); test: Example 1: phosphate binders in diet of LDLR−/− mouse model of CKD; format: in vivo; conditions: chronic daily dose of 0.5% or 1.5% (by weight) in the diet, oral
Excerpt: This study critically examined the in vivo efficacy of phosphate binding by a combination of phosphate binders, magnesium R-(+)-α-lipoate and calcium succinate monohydrate, in a mouse model of chronic kidney disease (CKD). The model is partial renal ablation in the LDL receptor-deficient (LDLR−/−) mouse that is fed high fat/cholesterol diets. […] In these animals, CKD causes intensification of vascular calcification (VC).
Materials: Calcium succinate monohydrate (CaSucc) and magnesium R-(+)-α-lipoate (MgRALA) having high purity and freedom from contaminating trace metals were provided by BioLink Life Sciences, Inc. Other chemicals were purchased from Sigma Aldrich Company (St. Louis, Mo.). […]
Two sets of animals in the group receiving magnesium alpha-lipoate were treated according to the protocol. […] Myocardin, Smad6, sm22α, calponin, αSMA, BMP-2, RUNX2/Cbfa1, osteopontin and osteocalcin message levels were measured by real time RT-PCR. Osteocalcin, type 1 collagen and αSMA were determined by immunohistochemistry. MGP levels and specifically γ-carboxylated MGP were determined with a specific antibody. […]
Blood Tests: Serum was analyzed on the day of blood draw for blood urea nitrogen [BUN], cholesterol, calcium, glucose and phosphate by standard autoanalyzer laboratory methods.

Which Ki [1] does the source give for `O=C(O)CCCC[C@@H](S)CCS` (racemic) [dihydrolipoic acid] here?
Its Ki is 11.4 µM.

For `O=C(O)CCCCC1CCSS1` (stereo not drawn) [ALA, alpha-lipoic acid], which “no-observed adverse effect level (NOAEL)” value [2] is on record?
Its value is 60 mg per kg body weight per day.

And the “fraction of orally administered ALA absorbed into cells and the systemic circulation” value [3]?
The value was “greater than 90%”.

And the “time in which most of the orally administered ALA is absorbed” value [3]?
Its value is “two”.

What about the “reduction of β-methylcrotonyl carboxylase activity” value [4] of the same compound?
The value was 28-36%.

And the S-adenosylhomocysteine [5]?
Its S-adenosylhomocysteine is “elevated”.

What about the S-adenosylmethionine [5] of the same compound?
Its S-adenosylmethionine is “depleted”.

And the Ki [1]?
Its Ki is 4.6 µM.

And the “reduction of pyruvate carboxylase activity” value [6]?
The value was 28-36%.

And the “overt adverse effects in animals” value [7]?
The value was “without overt adverse effects”.

What about the “decrease of acetyl carboxylase activity” value [8] of the same compound?
Its value is at most 43%.

And the “NOAEL equivalent for an adult man” value ([9]; adult man)?
The value was 4.2 grams of ALA per day.

What about the “NOAEL equivalent for an adult woman” value ([9]; adult woman) of the same compound?
Its value is 3 grams of ALA per day.

And the “inhibition of second biotin transport component” value [10]?
The value was “not inhibited”.

What about the “toxicities in human studies” value ([11]; normal subjects and those with chronic kidney disease) of the same compound?
The value was “no significant toxicities have been observed”.

And the “overt adverse effects in humans” value ([11]; oral, total doses 100 mg to 1800 mg daily for months or years)?
The value was “without overt adverse effects; also recorded: no overt adverse effects”.

For `O=C(O)CCCCC1CCSS1` (stereo not drawn) [Magnesium a-lipoate, magnesium alpha-lipoate], which “stability and hygroscopicity of the powder” value [12] is on record?
The value was “stable, non-hygroscopic”.

With `O=C(O)CCCC[C@@H]1SC[C@@H]2NC(=O)N[C@@H]21` [biotin, D-biotin] as the compound, how does the “Michaelis-Menten constant for biotin” value ([1]; SMVT transport system) read?
The value was 22.7 ± 1.0 µM.

And the maximal velocity ([1]; SMVT transport system)?
The maximal velocity was 163.6±3.5 pmol per five minutes per milligram of protein.

And the Ki ([10]; read-out: Ki, second biotin transport component, saturable at very low biotin concentrations)?
The Ki was 0.0026 ± 0.0001 µM.

With `C[C@@H]1NC(=O)N[C@@H]1CCCCCC(=O)O` [desthiobiotin] as the compound, how does the Ki [1] read?
The Ki was 15.2 µM.

Which “overt adverse effects (FIG. 1)” value [13] does the source give for `O=C(O)CCCC[C@@H]1CCSS1` [magnesium R-(+)-alpha-lipoate, Magnesium R-(+)-alpha-lipoate] here?
The value was “hair loss and skin disorders”.

What about the “stability and hygroscopicity of the powder” value [12] of the same compound?
The value was “stable, non-hygroscopic”.

What does the source list for `CC(C)(CO)[C@@H](O)C(=O)NCCC(=O)O` [panthothenic acid]?
Ki [1]: 1.2 µM; inhibition of second biotin transport component [10]: not inhibited
